Legend:
MCMV (Smith strain) = test: MCMV infection of BALB/c mice; format: in vivo, mouse; details: after infection, 10 mg/kg twice daily for 5 days
Experimental: Animal work was carried out in strict accordance with the recommendations in the Guide for the Care and Use of Laboratory Animals of the National Institutes of Health. The animal protocol (number MO13M296) was approved by the Institutional Animal Care and Use Committee (IACUC) of Johns Hopkins University. For infection experiments 3-4 week old BALB/c mice were purchased from Harlan Laboratories (Indianapolis, Ind.). […] IMMUNOL. 980-86 (2011)) or saline intraperitoneally. Blood was collected 4 h after the second dose of iE-DAP for measurement of RANTES by ELISA (R&D Biosystems, Minneapolis, Minn.). Mice were infected with 10^6 PFU tissue culture derived MCMV (Smith strain, ATCC, VR-1399) and scarified after 14 days. Intracardiac blood was collected prior to sacrifice for gB real-time PCR assay (Vliegen et al., 98(1) VIRUS RES. 17-25 (2003)). Salivary glands, liver and spleen were harvested and stored at −80° C. Organs were homogenized in DMEM at a final concentration of 100 mg/mL Two million mouse embryonic fibroblast (MEFs) were seeded into 24-well plates. From each sample, 2.5% of the salivary gland or 10% of liver/spleen homogenate was used for infection of MEFs in triplicates. Plaques were counted after three days.
At 14 days' post infection mice were scarified, intracardiac blood was collected and tissue homogenates were prepared for plaque assays.

HIV-1 = details: acutely infected monocyte-derived macrophages and dendritic cells; cited from earlier work
[1] = test system: pp28-luciferase Towne strain; test: pp28-luciferase HCMV replication assay (first and second cycle); format: cell-based, human cytomegalovirus
Experimental: Human Foreskin Fibroblasts (HFFs) passage 12-16 (ATCC, CRL-2088™) were grown in Dulbecco's Modified Eagle Medium (DMEM) containing 10% fetal bovine serum (FBS) (Gibco, Carlsbad, Calif.) in a 5% CO2 incubator at 37° C. The generation of NOD2-KD HFFs (HFF-shNOD2) and control cells (HFF-GIPZ) was reported. One day prior to infection or treatment, 8×10^4 cells were seeded into each well of 12-well tissue culture plates. Multiplicities of infection were specified for each experiment. The Towne HCMV strain was obtained from ATCC (VR-977). The pp28-luciferase Towne strain which expresses luciferase under the control of the pp28 late promoter has been described. Luciferase activity was measured at 72 or 96 hours post infection (hpi) using the Glomax-Multi+ Detection System (Promega, Madison, Wis.). In second cycle replication assays cell free supernatants from HFFs infected with pp28-luciferase Towne were collected 4 days post completion of first replication cycle (5-10% of total volume/well), and used for infection of fresh HFFs seeded into 12-well plates. Cell lysates were collected after 72 h for luciferase activity. Supernatants from the first cycle were also used to measure virus titer in 12-well plates and plaques were counted at day 8 post infection. A purified preparation of the pp28-luciferase Towne strain was prepared by ultracentrifugation using sucrose gradient. The HCMV TB40 strain was obtained from ATCC (VR-1578). Clinical isolates of HCMV were obtained from the microbiology laboratory at Johns Hopkins Hospital with no identifiers that could be linked to a patient. The Johns Hopkins School of Medicine Office of Human Subject Research Institutional Review Board (IRB-X) determined that the research qualified for an exemption.

In the case of `Nc1nc(O)c2ncn(COC(CO)CO)c2n1` [Ganciclovir], the MCMV inhibition (MCMV (Smith strain)) is reported as “inhibited MCMV”.
In the case of `CCCCOC(=O)[C@@H](CCC(N)=O)NC(=O)[C@H](C)NC(=O)[C@@H](C)O[C@H]1[C@H](O)[C@@H](CO)OC(O)[C@@H]1NC(C)=O` (stereo partly shown) [MB, murabutide], the HIV-1 replication (HIV-1) is given as “significantly inhibits HIV-1 replication”.
For `C[C@H](N)C(=O)N[C@H](CCC(=O)NC(CCCC(N)C(=O)O)C(=O)O)C(=O)O` (stereo partly drawn) [Tri-DAP, L-Ala-γ-D-Glu-meso-diamino-pimelic acid], the “CMV inhibition (luciferase, protein expression, plaques)” value ([1]; Tri-DAP 10 μg/mL after infection, 72 hpi) was “results in CMV inhibition” and the CMV replication ([1]; Tri-DAP 10 μg/mL pretreatment 18 or 72 h, MOI 1) was “inhibits CMV replication”.

Reference: US20170021014A1, “VACCINE ADJUVANTS FOR CYTOMEGALOVIRUS PREVENTION AND TREATMENT” (THE JOHNS HOPKINS UNIVERSITY, priority 2015, published 2017)
